For 27 compounds, activity and melting point results are on record in patent US20160304461A1, “QUINOLONE COMPOUND AND PHARMACEUTICAL COMPOSITION” (OTSUKA PHARMACEUTICAL CO., LTD., priority 2007, published 2016).

Data set [1] deals with human neuroblastoma cell lines SH-SY5Y. Nature of the data set: Improvement of mitochondrial dysfunction in MPP+-treated SH-SY5Y cells (Alamar Blue mitochondrial oxidation reduction activity). The class given is cell-based. The note with it: SH-SY5Y cells in 1.5 mM MPP+ medium, relative to cells in DMSO alone = 100%, read-out: Fluorescence Intensity (%); for activity at 0.01 µg/mL: test compound 0.01 μg/ml; for activity at 0.03 µg/mL: test compound 0.03 μg/ml; for activity at 0.1 µg/mL: test compound 0.1 μg/ml; for activity at 0.3 µg/mL: test compound 0.3 μg/ml; for activity at 1 µg/mL: test compound 1 μg/ml. The method, then:
Evaluation of Improvement of Mitochondrial Dysfunction using Human Neuroblastoma Cell Lines SH-SY5Y Treated with 1-methyl-4-phenylpyridinium (MPP^+)
In human neuroblastoma cell lines SH-SY5Y in which mitochondrial activity was injured by MPP^+ treatment (Bollimuntha S. et al., J Biol Chem, 280, 2132-2140 (2005) and Shang T. et al., J Biol Chem, 280, 34644-34653 (2005)), improvement of the mitochondrial dysfunction was evaluated on the basis of the measurement value of the mitochondrial oxidation reduction activity using Alamar Blue fluorescent dye after the compound addition (Nakai M. et. al, Exp Neurol, 179, 103-110 (2003)).
The human neuroblastoma cell lines SH-SY5Y were cultured in Dulbecco's Modified Eagle's Medium containing 10% fetal bovine serum (DMEM containing 50 units/ml penicillin and 50 μg/ml streptomycin as antibiotics) at 37° C. in the presence of 5% carbon dioxide. Cells were scattered on a poly-D-lysine-coated 96-well black plate at a concentration of 3-6×10^4 cells/cm^2 (medium amount: 100 μl/well), and cultured in the above medium for two days. Further, the medium was changed to a DMEM containing a 1% N2 supplement (N2-DMEM) or to a medium (100 μl/well) in which 1.5 mM MPP^+ was dissolved. The cells were cultured therein for 39 to 48 hours, and then subjected to a mitochondrial oxidation reduction activity measurement system. A sample compound that had been previously dissolved in dimethyl sulfoxide (DMSO) was diluted with N2-DMEM, and added in a volume of 10 μl/well 24 hours before the activity measurement (final compound concentration: 0.01 to 1 μg/ml).
After removal of the medium by suction, a balanced salt solution containing 10% Alamar Blue (154 mM sodium chloride, 5.6 mM potassium chloride, 2.3 mM calcium chloride, 1.0 mM magnesium chloride, 3.6 mM sodium bicarbonate, 5 mM glucose, 5 mM HEPES, pH 7.2) was added in a volume of 100 μl/well, and reacted in an incubator at 37° C. for 1 hour. The fluorescent intensity was detected using a fluorescence detector (a product of Hamamatsu Photonics K.K., excitation wavelength 530 nm, measurement wavelength 580 nm) to thereby measure the mitochondrial oxidation reduction activity.
The fluorescent intensity of the well of the cells cultured in a medium containing MPP^+ and in each of the sample compounds was relatively evaluated based on a 100% fluorescent intensity of the well of the cells cultured in a medium containing DMSO alone (final concentration: 0.1%).
For orientation: Alamar Blue is a resazurin reagent that responds to reducing activity.

Structures are written as SMILES.

As a reminder, the melting point is the temperature of the solid-liquid transition.

`CCCOc1cc(F)c(F)c2c(=O)c(-c3ccc(OC)cc3)c[nH]c12` [Example 21, 5,6-Difluoro-3-(4-methoxyphenyl)-8-propoxy-1H-quinolin-4-one] returned a melting point of 198 to 200 °C. For the same compound, in data set [1], the activity at 0.01 µg/mL was determined as 52%, the activity at 0.03 µg/mL stood at 59%, the activity at 0.1 µg/mL was determined as 63% and the activity at 0.3 µg/mL amounted to 74%. Moreover, in data set [1], the activity at 1 µg/mL is 57%.

`COc1ccc(-c2c[nH]c3c(-c4ccco4)ccc(F)c3c2=O)cc1` [Example 86, 5-Fluoro-8-furan-2-yl-3-(4-methoxyphenyl)-1H-quinolin-4-one] displayed a melting point of 209 to 211 °C. Besides, in data set [1], the activity at 0.01 µg/mL was 52%, the activity at 0.03 µg/mL worked out at 59%, the activity at 0.1 µg/mL was 68% and the activity at 0.3 µg/mL turned out to be 61%. In data set [1], the activity at 1 µg/mL was found to be 39%.

In the case of `CCCOc1ccc(F)c2c(=O)c(-c3ccc(OC)cc3)cn(CCOCC)c12` [Example 93, 1-(2-Ethoxyethyl)-5-fluoro-3-(4-methoxyphenyl)-8-propoxy-1H-quinolin-4-one], the melting point fell in the range of 108 to 109 °C. In data set [1], the activity at 0.01 µg/mL was found to be 66%, the activity at 0.03 µg/mL came to 79%, the activity at 0.1 µg/mL came out at 86% and the activity at 0.3 µg/mL came out at 80%. Further, the activity at 1 µg/mL in data set [1] worked out at 69%.

In turn, `CCCOc1ccc(F)c2c(=O)c(-c3ccc(N(C)C)cc3)c[nH]c12` [Example 61, 3-(4-Dimethylaminophenyl)-5-fluoro-8-propoxy-1H-quinolin-4-one] gave a melting point of 206 to 207 °C. In data set [1], the activity at 0.01 µg/mL stood at 70%, the activity at 0.03 µg/mL was 65%, the activity at 0.1 µg/mL was 85% and the activity at 0.3 µg/mL was determined as 80%. For the same compound, the activity at 1 µg/mL in data set [1] came to 86%.

As to `CCCOc1ccc(F)c2c(=O)c(-c3ccoc3)c[nH]c12` [Example 1, 5-Fluoro-3-furan-3-yl-8-propoxy-1H-quinolin-4-one], the melting point lay within 214 to 215 °C. For the same compound, in data set [1], the activity at 0.01 µg/mL worked out at 51%, the activity at 0.03 µg/mL was found to be 62%, the activity at 0.1 µg/mL was 70% and the activity at 0.3 µg/mL came out at 66%. For the same compound, in data set [1], the activity at 1 µg/mL is 64%.

As for `COc1ccc(-c2c[nH]c3c(N4CCCC4)ccc(F)c3c2=O)cc1` [Example 18, 5-Fluoro-3-(4-methoxyphenyl)-8-pyrrolidin-1-yl-1H-quinolin-4-one], the melting point fell in the range of 100 to 105 °C.

As for `CCCOc1ccc(F)c2c(=O)c(-c3ccc(OC)cc3O)c[nH]c12` [Example 98, 5-Fluoro-3-(2-hydroxy-4-methoxyphenyl)-8-propoxy-1H-quinolin-4-one], the melting point was in the range of 208 to 209 °C.

As for `COc1ccc(-c2c[nH]c3c(OC(C)C)ccc(F)c3c2=O)cc1` [Example 9, 5-Fluoro-8-isopropoxy-3-(4-methoxyphenyl)-1H-quinolin-4-one], the melting point lay in the range of 193 to 194 °C.

`CCCOc1ccc(F)c2c(=O)c(-c3ccc(OC)cc3)c(C)[nH]c12` [Example 67, 5-Fluoro-3-(4-methoxyphenyl)-2-methyl-8-propoxy-1H-quinolin-4-one] had a melting point of 211 to 212 °C.

Compound `CCCOc1ccc(F)c2c(=O)c(-c3ccc(OCC)cc3)c[nH]c12` [Example 33, 3-(4-Ethoxyphenyl)-5-fluoro-8-propoxy-1H-quinolin-4-one] registered a melting point of 203 to 205 °C.

Turning to `CCCOc1ccc(F)c2c(=O)c(-c3ccc(OCC)c(F)c3)c[nH]c12` [Example 50, 3-(4-Ethoxy-3-fluorophenyl)-5-fluoro-8-propoxy-1H-quinolin-4-one], the melting point fell in the range of 176 to 177 °C.

As to `COc1ccc(-c2c[nH]c3c(OCC4CCCO4)ccc(F)c3c2=O)cc1` (stereo not shown) [Example 39, 5-Fluoro-3-(4-methoxyphenyl)-8-(tetrahydrofuran-2-ylmethoxy)-1H-quinolin-4-one], the melting point was 108 to 110 °C.

In the case of `CCCOc1ccc(F)c2c(=O)c(-c3ccc(Cl)cc3Cl)c[nH]c12` [Example 10, 3-(2,4-Dichlorophenyl)-5-fluoro-8-propoxy-1H-quinolin-4-one], the melting point lay in the range of 256 to 259 °C.

`CCCOc1ccc(F)c2c(=O)c(-c3ccco3)c(C(F)(F)F)[nH]c12` [Example 78, 5-Fluoro-3-furan-2-yl-8-propoxy-2-trifluoromethyl-1H-quinolin-4-one]: the melting point was in the range of 134 to 136 °C.

Compound `COc1ccc(-c2c[nH]c3c(OCCCNC(C)=O)ccc(F)c3c2=O)cc1` [Example 26, N-{3-[5-Fluoro-3-(4-methoxyphenyl)-4-oxo-1,4-dihydroquinolin-8-yloxy]propyl}acetamide] gave a melting point of 229 to 231 °C.

As to `CCCOc1ccc(F)c2c(=O)c(-c3cccnc3)c[nH]c12` [Example 49, 5-Fluoro-8-propoxy-3-pyridin-3-yl-1H-quinolin-4-one], the melting point lay within 234 to 236 °C.

Compound `CCCOc1ccc(F)c2c(=O)c(-c3ccc(OC)cc3)c(C(F)(F)F)[nH]c12` [Example 77, 5-Fluoro-3-(4-methoxyphenyl)-8-propoxy-2-trifluoromethyl-1H-quinolin-4-one] returned a melting point of 170 to 171 °C.

`COc1ccc(-c2c[nH]c3c(N4CCOCC4)ccc(F)c3c2=O)cc1` [Example 14, 5-Fluoro-3-(4-methoxyphenyl)-8-morpholin-4-yl-1H-quinolin-4-one] registered a melting point of 249 to 251 °C.

Compound `COc1ccc(-c2c[nH]c3c(N(C)CC(C)C)ccc(F)c3c2=O)cc1` [Example 28, 5-Fluoro-8-(N-isobutyl-N-methylamino)-3-(4-methoxyphenyl)-1H-quinolin-4-one] came in with a melting point of 144 to 145 °C.

For `CCOc1ccc(F)c2c(=O)c(-c3ccc(OC)cc3OC)c[nH]c12` [Example 12, 3-(2,4-Dimethoxyphenyl)-8-ethoxy-5-fluoro-1H-quinolin-4-one], the melting point was 154 to 155 °C.

`CCCOc1ccc(F)c2c(=O)c(-c3ccc(OC)cc3OC)c(C)[nH]c12` [Example 75, 3-(2,4-Dimethoxyphenyl)-5-fluoro-2-methyl-8-propoxy-1H-quinolin-4-one]: the melting point was 100 to 101 °C.

Compound `COc1ccc(-c2c[nH]c3c(-c4cc5ccccc5s4)ccc(F)c3c2=O)cc1` [Example 88, 8-Benzo[b]thiophen-2-yl-5-fluoro-3-(4-methoxyphenyl)-1H-quinolin-4-one] had a melting point of 276 to 277 °C.

In turn, `COc1ccc(-c2c[nH]c3c(N(C)C(C)C)ccc(F)c3c2=O)cc1` [Example 29, 5-Fluoro-8-(N-isopropyl-N-methylamino)-3-(4-methoxyphenyl)-1H-quinolin-4-one] showed a melting point of 267 to 269 °C.

Compound `CCCOc1ccc(F)c2c(=O)c(-c3ccc(OC)c(F)c3)c[nH]c12` [Example 2, 5-Fluoro-3-(3-fluoro-4-methoxyphenyl)-8-propoxy-1H-quinolin-4-one] displayed a melting point of 194 to 195 °C.

For the compound `CCCOc1ccc(F)c2c(=O)c(-c3ccc(F)cc3)c(C)[nH]c12` [Example 74, 5-Fluoro-3-(4-fluorophenyl)-2-methyl-8-propoxy-1H-quinolin-4-one], the melting point lay within 196 to 197 °C.

In turn, `CCCOc1ccc(F)c2c(=O)c(-c3ccccc3OC)c[nH]c12` [Example 7, 5-Fluoro-3-(2-methoxyphenyl)-8-propoxy-1H-quinolin-4-one] registered a melting point of 193 to 195 °C.

The compound `CCCOc1ccc(F)c2c(=O)c(-c3ccc(C(C)=O)cc3)c[nH]c12` [Example 54, 3-(4-Acetylphenyl)-5-fluoro-8-propoxy-1H-quinolin-4-one] registered a melting point of 180 to 181 °C.
